Test results published in patent US8969388B1, “Substituted pyrazolone compounds and methods of use” (Calitor Sciences, LLC, priority 2012, dated 2015).
Like-named read-outs stand apart in the source and are kept apart here.

Experiments:
[1] = Pharmacokinetics after intravenous and oral administration in rats; format: in vivo; conditions: for F: oral bioavailability, oral dose not given; for AUC(0-t) / half-life / Vd: rat, plasma; for clearance (CL) after iv dosing / AUC(0-t) / half-life / Vd: iv dosing; for Vd: read-out: Vss
Method: The compounds disclosed herein are assessed in pharmacokinetic studies in mice, rats, dogs or monkeys. The compounds are administered as a water solution, 2% HPMC+1% TWEEN®80 in water solution, 5% DMSO+5% solutol in saline, 4% MC suspension or capsule. For the intravenous administration, the animals are generally given at 1 or 2 mg/kg dose. For the oral (p.o.) dosing, mice and rats are generally given 5 or 10 mg/kg dose, and dogs and monkeys are generally given 10 mg/kg dose. The blood samples (0.3 mL) are drawn at 0.25, 0.5, 1.0, 2.0, 3.0, 4.0, 6.0, 8.0, 12 and 24 h time points or 0.083, 0.25, 0.5, 1.0, 2.0, 4.0, 6.0, 8.0 and 24 h time points and centrifuged at 3,000 or 4000 rpm for 2 to 10 min. The plasma solutions are collected, stored at −20° C. or −70° C. until analyzed by LC/MS/MS as described above.

[2] = target: T1, KDR (h) (Homo sapiens, UniProt P35968); test: KINOMEscan competition binding assay, KDR (h)
T1 construct: host or cells: E. coli BL21-derived host (T7 phage) or HEK-293
T1 sequence (P35968 20-1356): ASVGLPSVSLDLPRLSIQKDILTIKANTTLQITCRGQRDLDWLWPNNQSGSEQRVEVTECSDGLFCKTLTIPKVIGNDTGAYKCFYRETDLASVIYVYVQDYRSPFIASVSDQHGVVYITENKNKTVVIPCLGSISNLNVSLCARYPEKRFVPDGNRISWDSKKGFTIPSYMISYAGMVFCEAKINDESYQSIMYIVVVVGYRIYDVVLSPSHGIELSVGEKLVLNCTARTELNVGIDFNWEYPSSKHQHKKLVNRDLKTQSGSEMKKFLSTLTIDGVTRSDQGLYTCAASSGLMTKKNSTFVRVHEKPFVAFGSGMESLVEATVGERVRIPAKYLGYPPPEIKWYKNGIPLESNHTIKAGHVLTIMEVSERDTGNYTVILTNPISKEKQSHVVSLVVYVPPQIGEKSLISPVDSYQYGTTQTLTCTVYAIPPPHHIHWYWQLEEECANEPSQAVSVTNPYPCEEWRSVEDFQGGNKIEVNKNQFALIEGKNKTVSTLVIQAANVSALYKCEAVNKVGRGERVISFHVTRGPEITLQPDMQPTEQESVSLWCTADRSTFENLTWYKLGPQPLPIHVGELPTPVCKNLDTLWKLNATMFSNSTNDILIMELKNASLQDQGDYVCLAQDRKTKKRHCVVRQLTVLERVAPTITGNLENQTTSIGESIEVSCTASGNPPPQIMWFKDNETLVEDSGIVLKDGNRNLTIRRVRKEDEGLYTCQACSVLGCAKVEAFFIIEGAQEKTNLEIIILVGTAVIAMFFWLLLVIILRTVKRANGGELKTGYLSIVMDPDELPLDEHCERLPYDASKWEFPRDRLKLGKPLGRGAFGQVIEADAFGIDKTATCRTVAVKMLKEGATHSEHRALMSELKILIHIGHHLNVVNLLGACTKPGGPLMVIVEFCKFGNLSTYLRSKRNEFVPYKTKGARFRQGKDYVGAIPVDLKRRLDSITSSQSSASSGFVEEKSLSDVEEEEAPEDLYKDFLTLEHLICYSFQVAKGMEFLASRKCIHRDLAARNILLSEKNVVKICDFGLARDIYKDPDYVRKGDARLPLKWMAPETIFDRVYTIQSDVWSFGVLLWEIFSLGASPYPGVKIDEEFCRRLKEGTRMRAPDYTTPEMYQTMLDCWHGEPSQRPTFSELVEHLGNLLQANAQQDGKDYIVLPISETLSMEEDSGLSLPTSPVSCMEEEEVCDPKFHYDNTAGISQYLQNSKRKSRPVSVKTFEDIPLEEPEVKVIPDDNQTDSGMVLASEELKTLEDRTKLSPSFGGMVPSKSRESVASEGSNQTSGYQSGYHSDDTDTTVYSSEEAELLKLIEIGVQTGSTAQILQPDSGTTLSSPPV
Method: (§1) Alternatively, the kinase activities of the compounds can be measured using KINOMEscan™, which is based on a competition binding assay that quantitatively measures the ability of a compound to compete with an immobilized, active-site directed ligand. The assay was performed by combining three components: DNA-tagged kinase; immobilized ligand; and a test compound. The ability of the test compound to compete with the immobilized ligand was measured via quantitative PCR of the DNA tag.
(§2) For most assays, kinase-tagged T7 phage strains were prepared in an E. coli host derived from the BL21 strain. E. coli were grown to log-phase and infected with T7 phage and incubated with shaking at 32° C. until lysis. The lysates were centrifuged and filtered to remove cell debris. The remaining kinases were produced in HEK-293 cells and subsequently tagged with DNA for qPCR detection. Streptavidin-coated magnetic beads were treated with biotinylated small molecule ligands for 30 minutes at room temperature to generate affinity resins for kinase assays. The liganded beads were blocked with excess biotin and washed with blocking buffer (SEABLOCK™ (Pierce), 1% BSA, 0.05% TWEEN®20, 1 mM DTT) to remove unbound ligand and to reduce nonspecific binding. Binding reactions were assembled by combining kinases, liganded affinity beads, and test compounds in 1× binding buffer (20% SEABLOCK™, 0.17×PBS, 0.05% TWEEN®20, 6 mM DTT). All reactions were performed in polystyrene 96-well plates in a final volume of 0.135 mL. The assay plates were incubated at room temperature with shaking for 1 hour and the affinity beads were washed with wash buffer (1×PBS, 0.05% TWEEN®20). The beads were then re-suspended in elution buffer (1×PBS, 0.05% TWEEN®20, 0.5 μM non-biotinylated affinity ligand) and incubated at room temperature with shaking for 30 minutes. The kinase concentration in the eluates was measured by qPCR.
(§3) The kinase assays described herein were performed using KINOMEscan™ Profiling Service at DiscoveRx Corporation, 42501 Albrae St. Fremont, Calif.

[3] = target: T2, c-Met (h) (Homo sapiens, UniProt P08581); test: KINOMEscan competition binding assay, c-Met (h)
T2 construct: host or cells: E. coli BL21-derived host (T7 phage) or HEK-293
T2 sequence (P08581 25-1390): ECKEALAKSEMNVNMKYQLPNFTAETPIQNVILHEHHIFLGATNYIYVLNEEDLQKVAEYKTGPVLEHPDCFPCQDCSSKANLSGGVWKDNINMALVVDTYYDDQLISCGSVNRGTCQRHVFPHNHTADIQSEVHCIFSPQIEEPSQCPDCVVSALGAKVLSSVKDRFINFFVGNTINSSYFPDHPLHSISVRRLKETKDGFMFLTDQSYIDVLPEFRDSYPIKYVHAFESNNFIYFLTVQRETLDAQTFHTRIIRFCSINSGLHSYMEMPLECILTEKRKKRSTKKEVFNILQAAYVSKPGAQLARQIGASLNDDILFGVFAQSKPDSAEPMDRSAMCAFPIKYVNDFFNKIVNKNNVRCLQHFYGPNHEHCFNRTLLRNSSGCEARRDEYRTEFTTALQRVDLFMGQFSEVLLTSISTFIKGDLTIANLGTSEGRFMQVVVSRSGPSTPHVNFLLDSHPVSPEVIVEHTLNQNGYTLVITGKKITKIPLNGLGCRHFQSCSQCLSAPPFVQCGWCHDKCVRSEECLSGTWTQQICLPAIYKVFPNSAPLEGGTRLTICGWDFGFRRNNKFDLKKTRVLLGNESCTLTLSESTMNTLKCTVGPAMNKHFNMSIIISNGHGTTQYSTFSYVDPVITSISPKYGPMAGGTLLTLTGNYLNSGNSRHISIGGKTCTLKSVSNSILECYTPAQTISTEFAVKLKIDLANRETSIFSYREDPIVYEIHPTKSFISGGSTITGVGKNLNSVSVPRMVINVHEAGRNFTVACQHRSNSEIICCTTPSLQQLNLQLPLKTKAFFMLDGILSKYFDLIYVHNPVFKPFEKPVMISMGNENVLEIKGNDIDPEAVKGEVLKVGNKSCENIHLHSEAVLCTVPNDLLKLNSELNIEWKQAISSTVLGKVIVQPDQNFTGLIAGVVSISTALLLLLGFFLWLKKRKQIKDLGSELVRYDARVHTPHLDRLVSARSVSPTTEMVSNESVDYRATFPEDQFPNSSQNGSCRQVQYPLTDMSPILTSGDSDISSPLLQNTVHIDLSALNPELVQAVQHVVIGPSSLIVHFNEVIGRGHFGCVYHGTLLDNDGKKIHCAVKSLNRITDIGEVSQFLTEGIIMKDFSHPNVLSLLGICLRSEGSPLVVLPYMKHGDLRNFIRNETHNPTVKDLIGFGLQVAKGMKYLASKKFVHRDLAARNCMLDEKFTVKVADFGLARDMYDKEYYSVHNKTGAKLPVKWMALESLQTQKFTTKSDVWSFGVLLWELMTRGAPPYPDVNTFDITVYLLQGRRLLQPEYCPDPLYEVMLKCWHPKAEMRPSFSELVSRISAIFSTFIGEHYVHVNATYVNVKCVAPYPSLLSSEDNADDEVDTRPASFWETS
Method: as §1, §2, §3

[4] = test system: U87MG glioblastoma cells; test: U87MG tumor xenograft model, tumor growth inhibition; format: in vivo, athymic nude mice (BALB/cA nu/nu); conditions: mice, oral gavage
Method: The efficacy of compounds disclosed herein was evaluated in a standard murine model of tumorigenesis. Human tumor cells (U87MG glioblastoma cells from ATCC) were expended in culture, harvested, and injected subcutaneously onto the rear flank of 6-7 week old female athymic nude mice (BALB/cA nu/nu, Hunan SLAC Laboratory Animal, Co.) (n=6-10 for vehicle group and for each dosing group). When tumors reached a volume of 100-250 mm^3, animals were randomly divided into vehicle control (for example, 5% DMSO+70% Captisol® (30%), 7% HCl (pH1), 18% Captisol® (30%); or 7% DMSO, 7% HCl (pH1), 70% Captisol® (30%), 16% Captisol® (30%), or the like) and compound groups. Subsequent administration of compound by oral gavage begins anywhere from day 0 to day 15 post tumor cell challenge and generally continues with once a day for the duration of the experiment.
Progression of tumor growth is assessed by tumor volumes and recorded as a function of time. The long (L) and short (W) axes of the subcutaneous tumors were measured with calipers twice weekly, and the tumor volume (TV) calculated as (L×W^2)/2). TGI was calculated from the difference between the median tumor volumes of vehicle-treated and drug-treated mice, expressed as a percentage of the median tumor volume of the vehicle-treated control group, by the following relation:
[formula] Initial statistical analysis is done by repeated measures analysis of variance (RMANOVA), followed by Scheffe psot hoc testing for multiple comparisons. Vehicle alone (5% DMSO+70% Captisol® (30%), 7% HCl (pH1), 18% Captisol® (30%); or 7% DMSO, 7% HCl (pH1), 70% Captisol® (30%), 16% Captisol® (30%), or the like) is the negative control.

With `CC(=O)Nc1cc(Oc2ccc(NC(=O)c3c(C)n(C)n(-c4ccccc4)c3=O)cc2F)ccn1` [Ex. 23, N-(4-((2-acetamidopyridin-4-yl)oxy)-3-fluorophenyl)-1,5-dimethyl-3-oxo-2-phenyl-2,3-dihydro-1H-pyrazole-4-carboxamide] the “clearance (CL) after iv dosing” value ([1]; 2 mg/kg) was 0.5 mL/min/kg, the F ([1]; iv dose 2 mg/kg) was 69.7% and the AUC(0-t) ([1]; 2 mg/kg) was 56600 ng·h/mL. For the same molecule, the half-life ([1]; 2 mg/kg) was 4.4 h, the Vd ([1]; 2 mg/kg) was 0.18 L/kg and the Kd [2] was 13 nM. It also gave a Kd [3] of 5.1 nM.
Molecule `CC(=O)Nc1nccc(Oc2ccc(NC(=O)c3c(C)n(C)n(-c4ccccc4)c3=O)nc2)c1Cl` [Ex. 20, N-(5-((2-acetamido-3-chloropyridin-4-yl)oxy)pyridin-2-yl)-1,5-dimethyl-3-oxo-2-phenyl-2,3-dihydro-1H-pyrazole-4-carboxamide] has a Kd [2] of 1600 nM and a Kd [3] of 620 nM.
With `Cc1c(C(=O)Nc2ccc(Oc3ccnc(N)c3Cl)cc2)c(=O)n(-c2ccccc2)n1C` [Ex. 2, N-(4-((2-amino-3-chloropyridin-4-yl)oxy)phenyl)-1,5-dimethyl-3-oxo-2-phenyl-2,3-dihydro-1H-pyrazole-4-carboxamide] the “TGI % (on last day of dosing)” value ([4]; 6 mg/kg, 14 days) was 29%, the “TGI % (on last day of dosing)” value ([4]; 20 mg/kg, 14 days) was 69% and the “TGI % (on last day of dosing)” value ([4]; 60 mg/kg, 14 days) was 82%. For the same molecule, the “clearance (CL) after iv dosing” value ([1]; 1 mg/kg) was 23.2 mL/min/kg, the F ([1]; iv dose 1 mg/kg) was 98.5% and the AUC(0-t) ([1]; 1 mg/kg) was 685 ng·h/mL. It also gave a half-life ([1]; 1 mg/kg) of 4.1 h, a Vd ([1]; 1 mg/kg) of 1.75 L/kg and a Kd [2] of 43 nM. The Kd [3] was 13 nM.
`[2H]c1cc(Oc2ccnc(N)c2)ccc1NC(=O)c1c(C)n(C)n(-c2ccccc2)c1=O` [Ex. 15, N-(4-((2-aminopyridin-4-yl)oxy)-2-deuteriumphenyl)-1,5-dimethyl-3-oxo-2-phenyl-2,3-dihydro-1H-pyrazole-4-carboxamide] showed a Kd [2] of 3800 nM and a Kd [3] of 180 nM.
For `Cc1c(C(=O)Nc2cc(F)c(Oc3ccnc(NC(=O)N4CCOCC4)c3)cc2F)c(=O)n(-c2ccccc2)n1C` [Ex. 10, N-(4-(4-(1,5-dimethyl-3-oxo-2-phenyl-2,3-dihydro-1H-pyrazole-4-carboxamido)-2,5-difluorophenoxy)pyridin-2-yl)morpholine-4-carboxamide], the “clearance (CL) after iv dosing” value ([1]; 1 mg/kg) was 1.83 mL/min/kg, the F ([1]; iv dose 1 mg/kg) was 83.2% and the AUC(0-t) ([1]; 1 mg/kg) was 9640 ng·h/mL. For the same molecule, the half-life ([1]; 1 mg/kg) was 4.6 h and the Vd ([1]; 1 mg/kg) was 0.53 L/kg.
In the case of `Cc1c(C(=O)Nc2ccc(Oc3ccnc(N)c3Cl)cn2)c(=O)n(-c2ccccc2)n1C` [Ex. 19, N-(5-((2-amino-3-chloropyridin-4-yl)oxy)pyridin-2-yl)-1,5-dimethyl-3-oxo-2-phenyl-2,3-dihydro-1H-pyrazole-4-carboxamide], the “TGI % (on last day of dosing)” value ([4]; 6 mg/kg, 12 days) is reported as 22%, the “TGI % (on last day of dosing)” value ([4]; 20 mg/kg, 12 days) is reported as 49% and the “TGI % (on last day of dosing)” value ([4]; 60 mg/kg, 12 days) is reported as 103%. For the same molecule, the Kd [2] was 26 nM and the Kd [3] was 16 nM.
`CC(=O)Nc1nccc(Oc2ccc(NC(=O)c3c(C)n(C)n(-c4ccccc4)c3=O)cc2F)c1Cl` [Ex. 4, N-(4-((2-acetamido-3-chloropyridin-4-yl)oxy)-3-fluorophenyl)-1,5-dimethyl-3-oxo-2-phenyl-2,3-dihydro-1H-pyrazole-4-carboxamide] showed a Kd [2] of 540 nM and a Kd [3] of 24 nM.
In the case of `CC(=O)Nc1cc(Oc2cc(F)c(NC(=O)c3c(C)n(C)n(-c4ccccc4)c3=O)cc2F)ccn1` [Ex. 9, N-(4-((2-acetamidopyridin-4-yl)oxy)-2,5-difluorophenyl)-1,5-dimethyl-3-oxo-2-phenyl-2,3-dihydro-1H-pyrazole-4-carboxamide], the “clearance (CL) after iv dosing” value ([1]; 1 mg/kg) is reported as 0.67 mL/min/kg, the F ([1]; iv dose 1 mg/kg) is reported as 61.2% and the AUC(0-t) ([1]; 1 mg/kg) is reported as 23300 ng·h/mL. For the same molecule, the half-life ([1]; 1 mg/kg) was 4.76 h, the Vd ([1]; 1 mg/kg) was 0.24 L/kg and the Kd [2] was 160 nM. The Kd [3] was 1.8 nM.
With `Cc1c(C(=O)Nc2ccc(Oc3ccnc(N)c3)cc2Cl)c(=O)n(-c2ccccc2)n1C` [Ex. 12, N-(4-((2-aminopyridin-4-yl)oxy)-2-chlorophenyl)-1,5-dimethyl-3-oxo-2-phenyl-2,3-dihydro-1H-pyrazole-4-carboxamide] the “clearance (CL) after iv dosing” value ([1]; 2 mg/kg) was 15.7 mL/min/kg, the F ([1]; iv dose 2 mg/kg) was 125.0% and the AUC(0-t) ([1]; 2 mg/kg) was 2120 ng·h/mL. The half-life ([1]; 2 mg/kg) was 1.56 h, the Vd ([1]; 2 mg/kg) was 0.69 L/kg and the Kd [2] was 19000 nM. It also gave a Kd [3] of 56 nM.
Molecule `CC(=O)Nc1nccc(Oc2ccc(NC(=O)c3c(C)n(C)n(-c4ccccc4)c3=O)cc2)c1Cl` [Ex. 21, N-(4-((2-acetamido-3-chloropyridin-4-yl)oxy)phenyl)-1,5-dimethyl-3-oxo-2-phenyl-2,3-dihydro-1H-pyrazole-4-carboxamide] has a Kd [2] of 1100 nM and a Kd [3] of 120 nM.
In the case of `Cc1c(C(=O)Nc2ccc(Oc3ccnc(N)c3)cn2)c(=O)n(-c2ccccc2)n1C` [Ex. 16, N-(5-((2-aminopyridin-4-yl)oxy)pyridin-2-yl)-1,5-dimethyl-3-oxo-2-phenyl-2,3-dihydro-1H-pyrazole-4-carboxamide], the Kd [2] is reported as 1800 nM and the Kd [3] is reported as 200 nM.
With `Cc1c(C(=O)Nc2ccc(Oc3ccnc(N)c3)c(F)c2F)c(=O)n(-c2ccccc2)n1C` [Ex. 5, N-(4-((2-aminopyridin-4-yl)oxy)-2,3-difluorophenyl)-1,5-dimethyl-3-oxo-2-phenyl-2,3-dihydro-1H-pyrazole-4-carboxamide] the “clearance (CL) after iv dosing” value ([1]; 2 mg/kg) was 31.2 mL/min/kg, the F ([1]; iv dose 2 mg/kg) was 19.1% and the AUC(0-t) ([1]; 2 mg/kg) was 1080 ng·h/mL. It also gave a half-life ([1]; 2 mg/kg) of 0.31 h, a Vd ([1]; 2 mg/kg) of 0.53 L/kg and a Kd [2] of 3300 nM. For the same molecule, the Kd [3] was 37 nM.
With `Cc1c(C(=O)Nc2cc(F)c(Oc3ccnc(N)c3Cl)cc2F)c(=O)n(-c2ccccc2)n1C` [Ex. 11, N-(4-((2-amino-3-chloropyridin-4-yl)oxy)-2,5-difluorophenyl)-1,5-dimethyl-3-oxo-2-phenyl-2,3-dihydro-1H-pyrazole-4-carboxamide] the “clearance (CL) after iv dosing” value ([1]; 2 mg/kg) was 9.5 mL/min/kg, the F ([1]; iv dose 2 mg/kg) was 88.0% and the AUC(0-t) ([1]; 2 mg/kg) was 3340 ng·h/mL. It also gave a half-life ([1]; 2 mg/kg) of 2.9 h, a Vd ([1]; 2 mg/kg) of 1.17 L/kg and a Kd [2] of 340 nM. For the same molecule, the Kd [3] was 1.4 nM.
With `CC(=O)Nc1cc(Oc2ccc(NC(=O)c3c(C)n(C)n(-c4ccccc4)c3=O)c(Cl)c2)ccn1` [Ex. 13, N-(4-((2-acetamidopyridin-4-yl)oxy)-2-chlorophenyl)-1,5-dimethyl-3-oxo-2-phenyl-2,3-dihydro-1H-pyrazole-4-carboxamide] the Kd [2] was 570 nM and the Kd [3] was 18 nM.
